Data: PMC7979765, “trans-Translation inhibitors bind to a novel site on the ribosome and clear Neisseria gonorrhoeae in vivo” (Nature Communications, 2021)
In brackets after ≈: the same amount, converted by molar mass. Several values for one entry are separate records, joined by “and”; a condition that tells them apart may be missing. Identical values can stand only once.

Assays:
HeLa cells [1] = assay: Mammalian cell cytotoxicity (CC50); format: cell-based, human; conditions: one value per replicate
Escherichia coli = assay: microbe, parasite or virus in culture; format: cell-based; conditions: E. coli KLE701 (ΔtolC::tet); source data, individual replicates
[2] = Liver microsome stability, murine; format: in vitro ADME, mouse; conditions: for Average MLMS t½ / MLMS t½: murine liver microsomes; for Average MLMS t½: average of replicates; for MLMS t½: individual replicates
Protocol: To examine potential for first-pass metabolism of analogs in the liver, the stability of analogs in the presence of liver microsome preparations (Eurofins Discovery for human, dog and rat; Xenotech for mouse) was measured using the method of Kuhnz, et al.[50]. for murine studies and Oback for the dog, human and rat studies. The amount of parent compound remaining after incubation with microsomes in the presence of NADPH over a 30 min time range was measured using a reverse-phase liquid chromatography/mass spectroscopy method that was customized for each compound. Half-lives were calculated using linear regression analysis of several time points.

HeLa cells [3] = assay: Mammalian cell cytotoxicity (CC50); format: cell-based, human; conditions: HeLa, replicates
Protocol: The half maximal cytotoxic concentration (CC50) of each compound against HeLa cells (ATCC CCL-2) was measured as previously described. […] The mean values for each biological replicate were averaged, and the CC50 was determined using a 4-parameter nonlinear curve fitting algorithm (GraphPad Prism). The average of the CC50s from two biological replicates was calculated and reported.

[4] = Aqueous solubility (nephelometric); format: physicochemical; conditions: for Solubility: single replicates
Neisseria gonorrhoeae = assay: MIC, microbroth dilution, G77L medium; format: cell-based; conditions: Neisseria gonorrhoeae ATCC 49226; source data, individual replicates

Row | Compound | CC50 (HeLa cells [1]) | MIC (Escherichia coli) | Average MLMS t½ [2] [min] | MLMS t½ [2] | NORMALIZED DATA (Fraction DMSO Control) (HeLa cells [3]; [CMPD] 0.78125 µM) | NORMALIZED DATA (Fraction DMSO Control) (HeLa cells [3]; [CMPD] 1.5625 µM) | NORMALIZED DATA (Fraction DMSO Control) (HeLa cells [3]; [CMPD] 3.125 µM) | NORMALIZED DATA (Fraction DMSO Control) (HeLa cells [3]; [CMPD] 6.25 µM) | NORMALIZED DATA (Fraction DMSO Control) (HeLa cells [3]; [CMPD] 12.5 µM) | NORMALIZED DATA (Fraction DMSO Control) (HeLa cells [3]; [CMPD] 25 µM) | NORMALIZED DATA (Fraction DMSO Control) (HeLa cells [3]; [CMPD] 50 µM) | NORMALIZED DATA (Fraction DMSO Control) (HeLa cells [3]; [CMPD] 100 µM) | Average solubility [4] [µM] | Solubility [4] [µM] | MIC (Neisseria gonorrhoeae) | liver microsome stability (in words) [2]
1 | O=C(Nc1nnc(-c2ccc(F)cc2)o1)C1CCCCC1 [MBX-3709] | ≥ 100 µM | 28.931 µg/mL (≈ 100 µM) | <5 | <5 min | 0.9843 Fraction DMSO Control and 0.9839 Fraction DMSO Control and 1.011 Fraction DMSO Control and 0.9844 Fraction DMSO Control and 1.002 Fraction DMSO Control and 0.9797 Fraction DMSO Control | 1.013 Fraction DMSO Control and 1.069 Fraction DMSO Control and 1.052 Fraction DMSO Control and 1.032 Fraction DMSO Control and 1.012 Fraction DMSO Control and 1.033 Fraction DMSO Control | 1.017 Fraction DMSO Control and 1.012 Fraction DMSO Control and 1.028 Fraction DMSO Control and 1.006 Fraction DMSO Control and 0.9958 Fraction DMSO Control and 1.035 Fraction DMSO Control | 0.9952 Fraction DMSO Control and 1.018 Fraction DMSO Control and 1.016 Fraction DMSO Control and 1.009 Fraction DMSO Control and 1.013 Fraction DMSO Control and 1.001 Fraction DMSO Control | 1.025 Fraction DMSO Control and 1.013 Fraction DMSO Control and 1.022 Fraction DMSO Control and 1.004 Fraction DMSO Control and 1.002 Fraction DMSO Control and 1.0412 Fraction DMSO Control | 1.006 Fraction DMSO Control and 1.033 Fraction DMSO Control and 1.009 Fraction DMSO Control and 1.014 Fraction DMSO Control and 0.9855 Fraction DMSO Control and 1.046 Fraction DMSO Control | 0.7814 Fraction DMSO Control and 0.7858 Fraction DMSO Control and 0.7422 Fraction DMSO Control and 0.8088 Fraction DMSO Control and 0.7466 Fraction DMSO Control and 0.7859 Fraction DMSO Control | 0.7348 Fraction DMSO Control and 0.7441 Fraction DMSO Control and 0.7211 Fraction DMSO Control and 0.7931 Fraction DMSO Control and 0.7717 Fraction DMSO Control and 0.7681 Fraction DMSO Control | 25 | 25 (≈ 7.23 µg/mL) | 7.233 µg/mL and 3.616 µg/mL | 
2 | O=C(Nc1nnc(-c2ccccc2)o1)c1ccc(Cl)cc1 [MBX-3910] | 42.1 µM and 40.9 µM and > 100 µM and 36.7 µM and 35.8 µM and 41 µM | 0.9366 µg/mL (≈ 3.12 µM) | 5 | 5 min | 1.08 Fraction DMSO Control and 1.097 Fraction DMSO Control and 1.14 Fraction DMSO Control and 1.04 Fraction DMSO Control and 1.054 Fraction DMSO Control and 1.05 Fraction DMSO Control | 1.101 Fraction DMSO Control and 1.0991 Fraction DMSO Control and 1.152 Fraction DMSO Control and 1.073 Fraction DMSO Control and 1.065 Fraction DMSO Control and 1.0674 Fraction DMSO Control | 1.088 Fraction DMSO Control and 1.064 Fraction DMSO Control and 1.13 Fraction DMSO Control and 1.029 Fraction DMSO Control and 1.037 Fraction DMSO Control and 1.067 Fraction DMSO Control | 1.079 Fraction DMSO Control (2×) and 1.139 Fraction DMSO Control and 1.051 Fraction DMSO Control and 1.03 Fraction DMSO Control and 1.024 Fraction DMSO Control | 1.036 Fraction DMSO Control and 1.056 Fraction DMSO Control and 1.0972 Fraction DMSO Control and 1.011 Fraction DMSO Control and 0.9941 Fraction DMSO Control and 0.9999 Fraction DMSO Control | 0.7722 Fraction DMSO Control and 0.7686 Fraction DMSO Control and 0.9894 Fraction DMSO Control and 0.8554 Fraction DMSO Control and 0.8395 Fraction DMSO Control and 0.8785 Fraction DMSO Control | 0.4225 Fraction DMSO Control and 0.4189 Fraction DMSO Control and 0.8248 Fraction DMSO Control and 0.6289 Fraction DMSO Control and 0.6212 Fraction DMSO Control and 0.6018 Fraction DMSO Control | 0.1921 Fraction DMSO Control and 0.2466 Fraction DMSO Control and 0.6012 Fraction DMSO Control and 0.4687 Fraction DMSO Control and 0.4717 Fraction DMSO Control and 0.4092 Fraction DMSO Control | 12.5 | 12.5 (≈ 3.75 µg/mL) | 0.2341 µg/mL and 0.1172 µg/mL | 
3 | O=C(Nc1nnc(-c2ccc(F)cc2)o1)N1CCCC1 [MBX-4346] | ≥ 100 µM | 27.6271 µg/mL (≈ 100 µM) | 25 | 30.1 min and 20.5 min | 1.217 Fraction DMSO Control and 0.9631 Fraction DMSO Control and 1.029 Fraction DMSO Control | 1.148 Fraction DMSO Control and 0.9904 Fraction DMSO Control and 1.014 Fraction DMSO Control | 1.14 Fraction DMSO Control and 1.021 Fraction DMSO Control and 1.0883 Fraction DMSO Control | 1.122 Fraction DMSO Control and 0.9837 Fraction DMSO Control and 1.041 Fraction DMSO Control | 1.103 Fraction DMSO Control and 1.043 Fraction DMSO Control and 1.0247 Fraction DMSO Control | 1.033 Fraction DMSO Control and 0.9838 Fraction DMSO Control and 0.9917 Fraction DMSO Control | 0.972 Fraction DMSO Control and 0.8011 Fraction DMSO Control and 0.809 Fraction DMSO Control | 0.8767 Fraction DMSO Control and 0.7312 Fraction DMSO Control and 0.7411 Fraction DMSO Control | >200 | >200 | 3.453 µg/mL (≈ 12.5 µM) | limited
4 | O=C(Nc1nnc(-c2ccc(F)cc2)o1)N1CCCCC1 [MBX-4699] | ≥ 100 µM | 7.257 µg/mL (≈ 25 µM) | 12 | 10.1 min and 13.2 min | 1.206 Fraction DMSO Control and 0.9471 Fraction DMSO Control and 1 Fraction DMSO Control | 1.141 Fraction DMSO Control and 0.9447 Fraction DMSO Control and 0.9657 Fraction DMSO Control | 1.163 Fraction DMSO Control and 1.061 Fraction DMSO Control and 1.0891 Fraction DMSO Control | 1.089 Fraction DMSO Control and 1.109 Fraction DMSO Control and 1.081 Fraction DMSO Control | 0.7963 Fraction DMSO Control and 0.7071 Fraction DMSO Control and 0.8639 Fraction DMSO Control | 0.8798 Fraction DMSO Control and 0.8258 Fraction DMSO Control and 0.8774 Fraction DMSO Control | 0.9431 Fraction DMSO Control and 0.7958 Fraction DMSO Control and 0.7843 Fraction DMSO Control | 0.7918 Fraction DMSO Control and 0.6844 Fraction DMSO Control and 0.6971 Fraction DMSO Control | 50 | 50 (≈ 14.5 µg/mL) | 0.9072 µg/mL (≈ 3.13 µM) | 
5 | O=C(Nc1nnc(-c2ccc(F)cc2)o1)N1CCCCCC1 [MBX-4700] | ≥ 100 µM | 3.804 µg/mL and 7.608 µg/mL | 19 | 16.8 min and 21.8 min | 1.19 Fraction DMSO Control and 0.9349 Fraction DMSO Control and 0.9879 Fraction DMSO Control | 1.113 Fraction DMSO Control and 0.9447 Fraction DMSO Control and 0.9899 Fraction DMSO Control | 1.151 Fraction DMSO Control and 1.008 Fraction DMSO Control and 1.078 Fraction DMSO Control | 0.9458 Fraction DMSO Control and 0.9081 Fraction DMSO Control and 0.9843 Fraction DMSO Control | 0.7537 Fraction DMSO Control and 0.7467 Fraction DMSO Control and 0.8509 Fraction DMSO Control | 0.8669 Fraction DMSO Control and 0.6852 Fraction DMSO Control and 0.8634 Fraction DMSO Control | 0.8891 Fraction DMSO Control and 0.7812 Fraction DMSO Control and 0.7745 Fraction DMSO Control | 0.8207 Fraction DMSO Control and 0.7165 Fraction DMSO Control and 0.6953 Fraction DMSO Control | 25 | 25 (≈ 7.61 µg/mL) | 0.951 µg/mL and 0.4755 µg/mL | 
